Source: patent US12601000B2, “Method for the hydroxylation of steroids” (ANNIKKI GMBH, priority 2020, dated 2026)
≈ marks a conversion by molar mass, not a printed value. Like-named read-outs stand apart in the source and are kept apart here.

Key:
[1] = system: Catellatospora citrae (DSM-44097); assay: Test of bacterial strains for 7-hydroxylation of deoxycholic acid; type: cell-based; conditions: deoxycholic acid 0.5 mM, cultured up to 72 h, HPLC and GC/MS
Source text: (§1) The following bacterial strains were obtained from the German Strain Collection of Microorganisms and Cell Cultures (DSMZ [Deutsche Stammsammlung für Mikroorganismen und Zellkulturen]): Saccharothrix longispora (DSM-43749), Catellatospora citrae (DSM-44097), Streptomyces hygroscopicus subsp. hygroscopicus (DSM-40578) and Asanoa ferruginea (DSM-44099). The strains were cultivated under standard conditions as recommended by DSMZ. […] After a centrifugation step, supernatants of the cultures were extracted with ethyl acetate and analyzed by HPLC and GC/MS.

[2] = system: Asanoa ferruginea (DSM-44099); assay: as above; type: cell-based; conditions: deoxycholic acid 0.5 mM, cultured up to 72 h, HPLC and GC/MS
Source text: as §1

[3] = system: Saccharothrix longispora (DSM-43749); assay: as above; type: cell-based; conditions: deoxycholic acid 0.5 mM, cultured up to 72 h, HPLC and GC/MS
Source text: as §1

[4] = system: Streptomyces hygroscopicus subsp. hygroscopicus (DSM-40578); assay: as above; type: cell-based; conditions: deoxycholic acid 0.5 mM, cultured up to 72 h, HPLC and GC/MS
Source text: as §1

[5] = Solubility limits of LCA and UDCA in organic solvents; type: physicochemical; conditions: organic solvent, organic solvent or mixture, thermodynamic from solid, read-out: solubility limit
Procedure: The organic solvent was added in increments of 100 μL, and the mixture was treated by shaking in a vortex shaker and optionally in an ultrasonic bath. It was visually assessed as to whether a clear solution was present.

C[C@H](CCC(=O)O)[C@H]1CC[C@H]2[C@@H]3CC[C@@H]4C[C@H](O)CC[C@]4(C)[C@H]3C[C@H](O)[C@]12C [deoxycholic acid, 3α,12α-dihydroxy-5β-cholanic acid]
7-hydroxylated product of deoxycholic acid in culture supernatant [1]: no indication of 7-hydroxylated products | 7-hydroxylated product of deoxycholic acid in culture supernatant [2]: no indication of 7-hydroxylated products | 7-hydroxylated product of deoxycholic acid in culture supernatant [3]: no indication of 7-hydroxylated products | 7-hydroxylated product of deoxycholic acid in culture supernatant [4]: a peak was noted the retention time of which corresponds to that of ursocholic acid

C[C@H](CCC(=O)O)[C@H]1CC[C@H]2[C@@H]3[C@@H](O)C[C@@H]4C[C@H](O)CC[C@]4(C)[C@H]3CC[C@]12C [UDCA, ursodeoxycholic acid]
solubility ([5]; 2-butanol): 53 mg/mL (≈ 135 mM) | solubility ([5]; 2-butanone): 10 mg/mL (≈ 25.5 mM) | solubility ([5]; CH2Cl2): 1.1 mg/mL (≈ 2.8 mM) | solubility ([5]; CHCl3/phenol): 21.3 mg/mL (≈ 54.3 mM) | solubility ([5]; CHCl3): 2.9 mg/mL (≈ 7.39 mM) | solubility ([5]; DMA): > 500 mg/mL | solubility ([5]; DMF): > 500 mg/mL | solubility ([5]; DMSO): > 500 mg/mL | solubility ([5]; Et2O): 2 mg/mL (≈ 5.09 mM) | solubility ([5]; Me—THF): 63.4 mg/mL (≈ 161 mM) | solubility ([5]; THF): 259 mg/mL (≈ 660 mM) | solubility ([5]; acetone): 8.8 mg/mL (≈ 22.4 mM) | solubility ([5]; cyclohexane): < 0.7 mg/mL | solubility ([5]; dioxane): 92.6 mg/mL (≈ 236 mM) | solubility ([5]; ethanol): 54.5 mg/mL (≈ 139 mM) | solubility ([5]; ethyl acetate (EtOAc)): 2.9 mg/mL (≈ 7.39 mM) | solubility ([5]; ethylene glycol): 16.6 mg/mL (≈ 42.3 mM) | solubility ([5]; hexane/EtOAc + 0.01% trifluoroacetic acid (TFA)): < 0.8 mg/mL | solubility ([5]; hexane/IPA 7:3 + 0.02% TFA): 12 mg/mL | solubility ([5]; hexane/IPA 8:2 + 0.01% TFA): 4 mg/mL | solubility ([5]; i Pr2O): < 0.5 mg/mL | solubility ([5]; isopropanol (IPA)): 47.5 mg/mL (≈ 121 mM) | solubility ([5]; methanol): > 100 mg/mL | solubility ([5]; methyl isobutyl alcohol (MIBA)): 35.7 mg/mL (≈ 90.9 mM) | solubility ([5]; methyl isobutyl ketone (MIBK)): 4.4 mg/mL (≈ 11.2 mM) | solubility ([5]; toluene): < 1 mg/mL
